The source of these data is US12551173B2, “System and method for single-scan rest-stress cardiac PET” (The General Hospital Corporation, priority 2012, dated 2026).

The subject of data set [1] is myocardium. Kind of data set: Kinetic analysis of clinical 18F-Flurpiridaz rest and stress PET, two-compartment tissue model, three subjects. It is filed as in vivo, human. Also on record: unit not given here. How it is done: To evaluate and compare the methods proposed in this work, simulation studies were performed based on the kinetic parameters derived from human studies conducted with ^18F-Flurpiridaz, formerly known as ^18F-BMS747158-02 (Lantheus Medical Imaging, North Billerica, MA). As a pyridazinone analog, ^18F-Flurpiridaz binds to the mitochondrial complex I with high affinity. The combination of high first pass extraction and complex I binding ensure a high uptake in the myocardium with long residence time, due to the high mitochondrial density in the myocardial wall. Data from a rat model have shown that ^18F-Flurpiridaz has an extraction fraction of greater than 90% over the physiological MBF range, which makes it an attractive perfusion tracer. Validation of MBF measured with ^18F-Flurpiridaz has been performed by Nekolla et al. in pigs by comparison to microsphere and ^13N-ammonia flow measurements.
As an example case, kinetic analysis was carried out based on ^18F-Flurpiridaz clinical data. ^18F-Flurpiridaz data was used to determine the local myocardial kinetics used in the simulations. […] In these studies, rest and stress imaging sessions were separated by at least 2 h. First, the rest and stress studies for each of the subjects were analyzed separately. […] For each subject, the acquired stress images were first aligned to the images of the rest study using the nonrigid image registration tool from SPM8 9 Ashburner, J., et al., Hum. Brain Mapp 7, 254-266, 1999). The LV and RV input functions for each subject and each study were extracted with generalized factor analysis on dynamic series (GFADS) (El Fakhri, G., et al., J. Nucl. Med. 46, 1264-1271, 2005; El Fakhri, G., et al., Med. Phys. 33, 1016-1024, 2006). The LV input function was used to approximate the plasma input function. No metabolite correction was performed. Because there is a 2-h gap between the rest and stress studies, the residual myocardial activity from the first tracer is mostly tracer bound to MC 1 and is nearly unaffected by the stressor. The rest and stress image volumes of the heart were segmented into 17 standard segments. Time-activity curves were calculated for each segment. The residual activity from the rest study was estimated and subtracted from the stress time-activity curve. Then, the kinetic parameters were estimated for each segment under the resting state with its 25-min time-activity curve. k3 was fixed as 0.026 (1/min) during the curve fitting. For the time-activity curve of the stress study, only data within the first 7.5 min were used in the curve fitting. After the parameters were estimated for all 17 segments, the cardiac flow reserve (CFR=K1,s/K1,r) of each segment was calculated. For the left anterior descending (LAD) territory, the segments with the two lowest CRF values were selected and the mean of each kinetic parameter was calculated from the estimated parameters of those two segments. The same calculation was repeated for right coronary artery (RCA) and left circumflex (LCX) as well. After two segments were picked for each territory, the kinetic parameters of the other 11 segments were averaged to compute the average kinetic parameters of the normal myocardium. The computation of the kinetic parameters of the normal myocardium, LAD, LCX, and RCA territories was performed separately for each subject. Table 1 summarizes kinetic parameters K1 and k2 estimated from the clinical ^18F-Flurpiridaz studies and used for Monte Carlo simulations.

The test system of data set [2] is myocardium. As to the kind of experiment: 100-min dynamic 18F-Flurpiridaz PET in cynomolgus monkey, 2-compartment model fit. It is filed as in vivo. The source says:
Due to the relatively short measurements obtained in human studies, longer duration ^18F-Flurpiridaz measurements were made in a healthy 4.1-kg cynomolgus monkey. The animal was imaged under resting state and general anesthesia with 1%-2% isoflurane mixed with 100% oxygen. A 100-min dynamic ^18F-Flurpiridaz PET study, with 1.25 mCi injected dose, was acquired with a microPET P4 system from Concorde Microsystems, Inc. Images were reconstructed with filtered back-projection (FBP) into 24×5-s, 6×30-s, 5×60-s, and 18×300-s frames. The LV and RV input functions were extracted with GFADS. A region of interest was drawn over the myocardium and used to calculate the time-activity curve, which was then fitted to the standard four parameter, two-compartment model, with corrections for blood-to-tissue spillover in Eq. (3). Compartment model kinetic analysis tool (COMKAT) (Muzic Jr., R. F., et al., J. Nucl. Med. 42, 636-645, 2001; Fang, Y. H., et al., J. Nucl. Med. 51, 77-84, 2010) under MATLAB R2009a (Mathworks, Natick MA) was used to perform the nonlinear least squares for parameter estimation with the frame duration used as the statistical weight. After the kinetic parameters were estimated from the 100-min time-activity curve, the data were refit while progressively reducing the observation period. First, K1, k2, f1, and fRV were estimated as a function of study duration of the time-activity curves, ranging from 1 to 10 min. Due to the short measurement periods used, k3 and k4 were fixed to the values estimated by the 100-min data. The parameter variance of each parameter was approximated by the covariance matrix from the nonlinear least squares fitting. Then, the duration of the time-activity curve was fixed to 10 min and estimation of K1, k2, f1, and fRV was repeated with k3 fixed at values ranging from 0 to 0.1, incremented by 0.005. k4 was fixed as the value derived from fitting the 100-min data. Again, variance of each estimated parameter was approximated by the covariance matrix.
Still another aspect of the present system and methods includes ^18F-Flurpiridaz myocardial blood flow estimation using dynamic PET in non-human primates. To evaluate the parameter precision when estimating the MBF, a long dynamic study was conducted on a 4.1-kg cynomolgus monkey and the MBF precision was examined with different durations of data being used for kinetic modeling. A dynamic ^18F-Flurpiridaz imaging study was performed on a microPET P4. The animal was imaged under the resting state for 100 minutes with an injected dose of 1.25 mCi. […] The LV (FIGS. 11A-11B) and RV input function were extracted with GFADS. Time-activity curve from a region of interest drawn over the myocardium was fitted to the 2-compartment model. The estimated parameters are: K1=0.51 (SD=1.5%), k2=0.075 (SD=4.7%), k3=0.026 (SD=10.2%) and k4=0.016 (SD=10.4%). […] To evaluate the precision of K1 and k2, different study durations were used, ranging from one minute to 10 minutes to estimate K1 and k2 (with k3 and k4 fixed) as plotted for K1 in FIG. 14B.

The test system of data set [3] is myocardium. Kind of data set: Tracer properties in the two-tissue compartment model (extraction, binding ratio). It is filed as in vivo. The source says: In another aspect, a flow measurement strategy incorporates knowledge of the basic properties of partially trapped tracers with a two-tissue compartment model, allowing simplifications appropriate to quantitative flow measurements. In this model the tracer can be in one of two states, either free, as the injected molecule, or bound to a receptor. In the example case of ^18F-Flurpiridaz, previous studies have shown that it binds to the mitochondrial complex I. The product of plasma concentration (Cr) and transport rate K1 is the force driving tracer from capillary plasma to the free space. Symbolically, K1 is the plasmato-tissue transport rate, FE, the product of flow F and the unidirectional capillary extraction fraction, E. k2 is a rate constant summarizing the egress from tissue to plasma. The rate constants k3 and k4 provide a summary description of binding and release of tracer. The full operational equation for the two compartment model is well known. In one aspect a focus is directed to the first few minutes after IV injection. […] Second, the ratio k3/(k2+k3), is between 0.2-0.6, meaning that after the first few minutes of scanning, about half the tracer entering the tissue space is bound and the effect of binding must be considered when interpreting the data. Third, it has been shown that at least an hour of scanning is required to obtain good estimates of all parameters. […]

The subject of data set [4] is myocardium. As to conditions: rat model, over the physiological MBF range; cited from earlier work.
In data set [5] the test system is myocardium. Particulars: cited from earlier work.
Another data set relates to mitochondrial complex I. As to conditions: cited from earlier work.
A further data set has as its system myocardial blood flow. Particulars: intravenous infusion, from start of infusion; cited from earlier work.
Where [6] appears, read: Subject 1, LAD territory, Stress.
The mark [7] stands for this setting: Subject 1, LCX territory, Stress.
[8] abbreviates: Subject 1, Normal myocardium, Rest.
Setting [9] is: Subject 1, Normal myocardium, Stress.
Where [10] appears, read: Subject 1, RCA territory, Stress.
The mark [11] stands for this setting: Subject 2, LAD territory, Stress.
Where [12] appears, read: Subject 2, LCX territory, Stress.
Setting [13] is: Subject 2, Normal myocardium, Rest.
[14] abbreviates: Subject 2, Normal myocardium, Stress.
The mark [15] stands for this setting: Subject 2, RCA territory, Stress.
Setting [16] is: Subject 3, LAD territory, Stress.
The mark [17] stands for this setting: Subject 3, LCX territory, Stress.
[18] abbreviates: Subject 3, Normal myocardium, Rest.
Where [19] appears, read: Subject 3, Normal myocardium, Stress.
[20] abbreviates: Subject 3, RCA territory, Stress.
Where [21] appears, read: resting state, 100 minutes of data, 1.25 mCi.

SMILES strings stand for the structures. “And” between values parts separate entries of the source, which are not always exact repeats. Equal entries are not always repeated.

In the case of `CC(C)(C)n1ncc(OCc2ccc(COCCF)cc2)c(Cl)c1=O` [18F-Flurpiridaz], the K1 in the data set with myocardium [1] (Subject 1, LAD territory, Rest) was found to be 0.56; in the data set with myocardium [1] (setting [6]), 1.04; with myocardium [1] (Subject 1, LCX territory, Rest), 0.58; with myocardium [1] (setting [7]), 0.99; in the data set with myocardium [1] (setting [8]) it was 0.68; in the data set on myocardium [1] (setting [9]), 1.96. In addition, the K1 with myocardium [1] (Subject 1, RCA territory, Rest) came to 0.74; with myocardium [1] (setting [10]) it was 1.26; in the data set with myocardium [1] (Subject 2, LAD territory, Rest), 0.78; in the data set with myocardium [1] (setting [11]) it was 1.60; in the data set on myocardium [1] (Subject 2, LCX territory, Rest), 0.94; in the data set with myocardium [1] (setting [12]), 2.10. Also, the K1 is 0.738 and 0.74 in the data set with myocardium [1] (setting [13]); 2.292 and 2.29 in the data set on myocardium [1] (setting [14]); 0.68 in the data set with myocardium [1] (Subject 2, RCA territory, Rest); 1.43 with myocardium [1] (setting [15]); 0.64 in the data set on myocardium [1] (Subject 3, LAD territory, Rest); 1.58 in the data set on myocardium [1] (setting [16]). The K1 in the data set on myocardium [1] (Subject 3, LCX territory, Rest) is recorded as 0.69; in the data set with myocardium [1] (setting [17]) it was 1.61; with myocardium [1] (setting [18]), 0.60; in the data set on myocardium [1] (setting [19]), 2.09; in the data set on myocardium [1] (Subject 3, RCA territory, Rest) it was 0.58; with myocardium [1] (setting [20]), 0.68. Also, the K1 in the data set with myocardium [2] (setting [21]) is given as 0.51 (SD=1.5%). Besides, the k2 in the data set with myocardium [1] (Subject 1, LAD territory, Rest) was 0.07; in the data set on myocardium [1] (setting [6]), 0.05; in the data set on myocardium [1] (Subject 1, LCX territory, Rest), 0.08; in the data set on myocardium [1] (setting [7]) it was 0.05; in the data set on myocardium [1] (setting [8]), 0.08; in the data set on myocardium [1] (setting [9]), 0.07. For the same compound, the k2 in the data set on myocardium [1] (Subject 1, RCA territory, Rest) was 0.08; with myocardium [1] (setting [10]) it was 0.08; in the data set on myocardium [1] (Subject 2, LAD territory, Rest), 0.11; in the data set with myocardium [1] (setting [11]) it was 0.07; in the data set with myocardium [1] (Subject 2, LCX territory, Rest), 0.13; with myocardium [1] (setting [12]) it was 0.10. Also, the k2 was 0.108 and 0.11 in the data set with myocardium [1] (setting [13]); 0.118 and 0.12 with myocardium [1] (setting [14]); 0.08 in the data set with myocardium [1] (Subject 2, RCA territory, Rest); 0.11 in the data set with myocardium [1] (setting [15]); 0.04 in the data set with myocardium [1] (Subject 3, LAD territory, Rest); 0.18 in the data set with myocardium [1] (setting [16]). Also, the k2 came out at 0.05 in the data set on myocardium [1] (Subject 3, LCX territory, Rest); 0.24 in the data set with myocardium [1] (setting [17]); 0.05 in the data set on myocardium [1] (setting [18]); 0.23 in the data set with myocardium [1] (setting [19]); 0.03 with myocardium [1] (Subject 3, RCA territory, Rest); 0.17 with myocardium [1] (setting [20]). The k2 in the data set with myocardium [2] (setting [21]) is recorded as 0.075 (SD=4.7%). Further, the “estimated K1 as a function of the nominal value of k3” value in the data set with myocardium [2] (rest state, k3 fixed at values between 0 and 0.1 min^-1 (FIG. 2B)) is given as 0.498 to 0.507. In the data set with myocardium [2] (setting [21]), the k3 was 0.026 (SD=10.2%). For the same compound, in the data set with myocardium [2] (setting [21]), the k4 was 0.016 (SD=10.4%). Further, the “ratio k3/(k2+k3)” value in the data set with myocardium [3] was 0.2-0.6. In addition, the extraction fraction entry in the data set with myocardium [4] is recorded as “greater than 90%”. The unidirectional extraction fraction entry with myocardium [5] (at all physiological flow rates) is “greater than 90%”. Moreover, in the data set on myocardium [5] (in the coronary circulation), the first-pass extraction result is reported as “nearly complete”. The “binding to mitochondrial complex I” value in the data set with mitochondrial complex I was “high affinity”.

Consider `Nc1ncnc2c1ncn2[C@@H]1O[C@H](CO)[C@@H](O)[C@H]1O` [adenosine], for which the “time to reach the peak hyperemia” value in the data set with myocardial blood flow is 1.5 min.

In the case of `OCCN(CCO)c1nc(N2CCCCC2)c2nc(N(CCO)CCO)nc(N3CCCCC3)c2n1` [dipyridamole], in the data set with myocardial blood flow, the “time to reach the peak hyperemia” value is 6.5 min.
